Source: patent publication US10689383B2, “Optionally fused heterocyclyl-substituted derivatives of pyrimidine useful for the treatment of inflammatory, metabolic, oncologic and autoimmune diseases” (NUEVOLUTION A/S, priority 2014, dated 2020)

Tests used:
[1] = molecular target: T1, human RORγt (Ligand Binding Domain) (Homo sapiens, UniProt P51449); test: Fluorescence Polarization (FP) Assay; conditions: Fluorescence Polarization (FP) Assay; values given as upper bounds of activity ranges; read-out: FP activity range
T1 construct: purchased Crelux (Planegg, Germany) batch no PC5032-1
T1 sequence (P51449 269-508 limits assumed): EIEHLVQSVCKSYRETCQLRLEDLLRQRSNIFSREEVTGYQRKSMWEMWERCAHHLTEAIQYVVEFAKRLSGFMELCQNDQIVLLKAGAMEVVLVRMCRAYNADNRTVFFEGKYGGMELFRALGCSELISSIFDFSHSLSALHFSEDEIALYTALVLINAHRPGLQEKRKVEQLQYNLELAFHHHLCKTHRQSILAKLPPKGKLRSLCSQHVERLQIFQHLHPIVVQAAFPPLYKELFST
Procedure, shortened: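 In vitro FP binding assay monitoring ligand binding within the ligand binding pocket. Probe is a TAMRA-labelled RORγt ligand (MW 910 g/mole); DMSO served as negative control.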

[2] = molecular target: T2, yeast Gal4-DNA binding domain fused to the ligand binding domain of human RORγ (Homo sapiens, UniProt P51449); test: RORγ Reporter Assay (Gal4); type: cell-based; conditions: values given as lower bounds of ranges; for Gal4 activity range @ 1 μM (% inhibition): RORγ Reporter Assay (Gal4) at 1 μM; for Gal4 activity range @ 0.1 μM (% inhibition): RORγ Reporter Assay (Gal4) at 0.1 μM
T2 construct: host or cells: HEK293t
T2 sequence (P51449 269-508 limits assumed): T1 sequence (P51449 269-508 limits assumed)
Procedure, shortened: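 HEK293t reporter cells expressing the hybrid, with Gal4-UAS-driven firefly luciferase, treated in triplicate with compound at 1,000 nM and 100 nM (0.1% DMSO) in medium with 10% charcoal-stripped FBS for 24 h at 37 °C. Luminescence read; percent reduction of RLU calculated relative to vehicle.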

SMILES	IC50 [1]	Gal4 activity range @ 1 μM (% inhibition) [2]	Gal4 activity range @ 0.1 μM (% inhibition) [2]
CC(C)(C)C[C@@H](Nc1ncnc(N2CCOCC2c2ccc(OC(F)(F)F)cc2)c1F)C(N)=O (stereo partly drawn) [Example 68, (2R)-2-[[5-fluoro-6-[3-[4-(trifluoromethoxy)phenyl]morpholin-4-yl]pyrimidin-4-yl]amino]-4,4-dimethyl-pentanamide]	< 2000 nM	>80 % inhibition	–
OCCC1(CNc2ncnc(N3CCOC[C@@H]3c3ccc(C(F)(F)F)cc3)c2F)CCOCC1 [Example 239, 2-[4-[[[5-fluoro-6-[(3S)-3-[4-(trifluoromethyl)phenyl]morpholin-4-yl]pyrimidin-4-yl]amino]methyl]tetrahydropyran-4-yl]ethanol]	< 500 nM	>80 % inhibition	>20 % inhibition
CNC(=O)C1(CNc2ncnc(N3CCOC[C@@H]3c3ccc(C(F)(F)F)cc3)c2F)CCOCC1 [Example 286, 4-[[[5-fluoro-6-[(3S)-3-[4-(trifluoromethyl)phenyl]morpholin-4-yl]pyrimidin-4-yl]amino]methyl]-N-methyl-tetrahydropyran-4-carboxamide]	< 2000 nM	>20 % inhibition	>20 % inhibition
OC1(CNc2ncnc(N3CCOC[C@@H]3c3ccc(C(F)(F)F)cc3)c2F)CCOC1 (stereo partly drawn) [Example 238, 3-[[[5-fluoro-6-[(3S)-3-[4-(trifluoromethyl)phenyl]morpholin-4-yl]pyrimidin-4-yl]amino]methyl]tetrahydrofuran-3-ol]	< 10000 nM	>50 % inhibition	>0 % inhibition
CCOc1ccc(C2CCCN2c2ncnc(NCc3ccc(CC(N)=O)cc3)c2F)cc1 (stereo not shown) [Example 301, 2-[4-[[[6-[2-(4-ethoxyphenyl)pyrrolidin-1-yl]-5-fluoro-pyrimidin-4-yl]amino]methyl]phenyl]acetamide]	< 500 nM	>80 % inhibition	>50 % inhibition
Cc1ccc(COc2ncnc(N3CCCC3c3ccc(C(F)(F)F)c(F)c3)c2F)cn1 (stereo not shown) [Example 73, 5-fluoro-4-[2-[3-fluoro-4-(trifluoromethyl)phenyl]pyrrolidin-1-yl]-6-[(6-methyl-3-pyridyl)methoxy]pyrimidine]	< 2000 nM	>20 % inhibition	>0 % inhibition
CC(C)(C)C[C@@H](Nc1ncnc(N2CCOCC2c2ccc(C(F)(F)F)cc2)c1F)C(N)=O (stereo partly drawn) [Example 20, (2R)-2-[[5-fluoro-6-[3-[4-(trifluoromethyl)phenyl]morpholin-4-yl]pyrimidin-4-yl]amino]-4,4-dimethyl-pentanamide]	< 2000 nM	>50 % inhibition	–
CC(=O)N1CCC(CNc2ncnc(N3CCC[C@@H]3c3ccc(C(F)(F)F)cc3)c2F)CC1 [Example 191, 1-[4-[[[5-fluoro-6-[(2R)-2-[4-(trifluoromethyl)phenyl]pyrrolidin-1-yl]pyrimidin-4-yl]amino]methyl]-1-piperidyl]ethanone]	< 500 nM	>80 % inhibition	>50 % inhibition
CNC(=O)Cc1ccc(CNc2ncnc(N3CCC[C@@H]3c3ccc(C(F)(F)F)cc3)c2F)cc1 [Example 189, 2-[4-[[[5-fluoro-6-[(2R)-2-[4-(trifluoromethyl)phenyl]pyrrolidin-1-yl]pyrimidin-4-yl]amino]methyl]phenyl]-N-methyl-acetamide]	< 500 nM	–	>20 % inhibition
O=C(O)Cc1ccc(CNc2ncnc(N3CCOCC3c3ccc(C(F)(F)F)cc3)c2F)cc1 (stereo not shown) [Example 119, 2-[4-[[[5-fluoro-6-[3-[4-(trifluoromethyl)phenyl]morpholin-4-yl]pyrimidin-4-yl]amino]methyl]phenyl]acetic acid]	< 1000 nM	>80 % inhibition	>20 % inhibition
NC(=O)CC1CCC(CNc2ncnc(N3CCOC[C@@H]3c3ccc(OC(F)(F)F)cc3)c2F)CC1 (stereo partly drawn) [Example 245, 2-[4-[[[5-fluoro-6-[(3S)-3-[4-(trifluoromethoxy)phenyl]morpholin-4-yl]pyrimidin-4-yl]amino]methyl]cyclohexyl] acetamide]	< 1000 nM	>80 % inhibition	>20 % inhibition
CC(=O)N1CCC(CNc2ncnc(N3CCOC[C@@H]3c3ccc(C(F)(F)F)cc3)c2F)CC1 [Example 233, 1-[4-[[[5-fluoro-6-[(3S)-3-[4-(trifluoromethyl)phenyl]morpholin-4-yl]pyrimidin-4-yl]amino]methyl]-1-piperidyl]ethanone]	< 500 nM	>80 % inhibition	>20 % inhibition
Cc1c(N[C@H](CC(C)(C)C)C(N)=O)ncnc1N1CCCC1c1ccc(C(F)(F)F)cc1 (stereo partly drawn) [Example 14, (2R)-4,4-dimethyl-2-[[5-methyl-6-[2-[4-(trifluoromethyl)phenyl]pyrrolidin-1-yl]pyrimidin-4-yl]amino]pentanamide]	< 10000 nM	>0 % inhibition	–
CS(=O)(=O)N1CCC(Cn2ccc3c(N4CCOC[C@@H]4c4ccc(OC(F)(F)F)cc4)ncnc32)CC1 [Example 290, (3S)-4-[7-[(1-methylsulfonyl-4-piperidyl)methyl]pyrrolo[2,3-d]pyrimidin-4-yl]-3-[4-(trifluoromethoxy)phenyl] morpholine]	< 500 nM	>80 % inhibition	>50 % inhibition
Cc1ccc(COc2ncnc(N3CCCC3c3ccc(C(F)(F)F)cc3)c2F)cn1 (stereo not shown) [Example 74, 5-fluoro-4-[(6-methyl-3-pyridyl)methoxy]-6-[2-[4-(trifluoromethyl)phenyl]pyrrolidin-1-yl]pyrimidine]	< 2000 nM	>80 % inhibition	–
CS(=O)(=O)N1CCC(CNc2ncnc(N3CCCC3c3ccc(C(F)(F)F)cc3O)c2F)CC1 (stereo not shown) [Example 324, 2-[1-[5-fluoro-6-[(1-methylsulfonyl-4-piperidyl)methylamino]pyrimidin-4-yl]pyrrolidin-2-yl]-5-(trifluoromethyl)phenol]	< 500 nM	>80 % inhibition	>50 % inhibition
NC(=O)Cc1ccc(CNc2ncnc(N3CCCC3c3ccc(C(F)(F)F)cc3O)c2F)cc1 (stereo not shown) [Example 323, 2-[4-[[[5-fluoro-6-[2-[2-hydroxy-4-(trifluoromethyl)phenyl]pyrrolidin-1-yl]pyrimidin-4-yl]amino]methyl]phenyl]acetamide]	< 500 nM	>80 % inhibition	>80 % inhibition
OCCc1ccc(CNc2ncnc(N3CCCC3c3ccc(C(F)(F)F)cc3)c2F)cc1 (stereo not shown) [Example 128, 2-[4-[[[5-fluoro-6-[2-[4-(trifluoromethyl)phenyl]pyrrolidin-1-yl]pyrimidin-4-yl]amino]methyl]phenyl]ethanol]	< 500 nM	–	>50 % inhibition
NC(=O)Cc1ccc(Cn2ccc3c(N4CCOC[C@@H]4c4ccc(OC(F)(F)F)cc4)ncnc32)cc1 [Example 252, 2-[4-[[4-[(3S)-3-[4-(trifluoromethoxy)phenyl]morpholin-4-yl]pyrrolo[2,3-d]pyrimidin-7-yl]methyl]phenyl]acetamide]	< 500 nM	>80 % inhibition	>80 % inhibition
O=S(=O)(Nc1ccc(CNc2ncnc(N3CCOC[C@@H]3c3ccc(C(F)(F)F)cc3)c2F)cc1)C(F)(F)F [Example 291, 1,1,1-trifluoro-N-[4-[[[5-fluoro-6-[(3S)-3-[4-(trifluoromethyl)phenyl]morpholin-4-yl]pyrimidin-4-yl]amino]methyl]phenyl] methanesulfonamide]	< 1000 nM	>50 % inhibition	>0 % inhibition
Fc1c(NCc2ccsc2)ncnc1N1CCC[C@@H]1c1ccc(C(F)(F)F)cc1 [Example 185, 5-fluoro-N-(3-thienylmethyl)-6-[(2R)-2-[4-(trifluoromethyl)phenyl]pyrrolidin-1-yl]pyrimidin-4-amine]	< 1000 nM	–	>50 % inhibition
CC1(CNc2ncnc(N3CCC[C@@H]3c3ccc(C(F)(F)F)cc3)c2F)COC1 [Example 198, 5-fluoro-N-[(3-methyloxetan-3-yl)methyl]-6-[2-[4-(trifluoromethyl)phenyl]pyrrolidin-1-yl]pyrimidin-4-amine]	< 500 nM	>80 % inhibition	>20 % inhibition
CC(C)(C)C[C@@H](Nc1ncnc(N2CCCC2c2ccc(C(F)(F)F)c(F)c2)c1F)C(N)=O (stereo partly drawn) [Example 72, (2R)-2-[[5-fluoro-6-[2-[3-fluoro-4-(trifluoromethyl)phenyl]pyrrolidin-1-yl]pyrimidin-4-yl]amino]-4,4-dimethyl-pentanamide]	< 1000 nM	>80 % inhibition	–
